Three molecules from paper PMC4211601, “Defining the conformation of human mincle that interacts with mycobacterial trehalose dimycolate” (Glycobiology, 2014) can be followed below.

The target in the assay is T1, human mincle CRD (Homo sapiens, UniProt Q9ULY5).
T1 construct: gene CLEC4E; C-terminal biotinylation tag kept; immobilised on streptavidin plates
T1 sequence (Q9ULY5 74-219): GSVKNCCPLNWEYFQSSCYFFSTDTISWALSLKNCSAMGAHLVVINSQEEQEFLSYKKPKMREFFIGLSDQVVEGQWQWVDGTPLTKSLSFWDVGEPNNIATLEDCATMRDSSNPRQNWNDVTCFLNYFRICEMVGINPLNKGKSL
The experiment in a line: competition with […]-Man31-BSA on immobilised CRD. It is filed as binding.
As usually defined, the Ki is a dissociation constant, usually derived from enzyme kinetics or from competition with a known ligand. A higher Ki goes with lower affinity. In turn, `CCCCCC(=O)OC[C@H]1O[C@H](O[C@H]2O[C@H](COC(=O)CCCCC)[C@@H](O)[C@H](O)[C@H]2O)[C@H](O)[C@@H](O)[C@@H]1O` [dihexanoate derivative] yielded a Ki of 12.5 µM.

`CCCCCC(=O)OC[C@H]1O[C@H](O[C@H]2O[C@H](CO)[C@@H](O)[C@H](O)[C@H]2O)[C@H](O)[C@@H](O)[C@@H]1O` [monohexanoate derivative]: affinity was put at a Ki of 184 ± 6 µM. Compared with the last molecule, the Ki is about 15-fold higher.

`CCCCCCCC(=O)OC[C@H]1O[C@H](O[C@H]2O[C@H](CO)[C@@H](O)[C@H](O)[C@H]2O)[C@H](O)[C@@H](O)[C@@H]1O` [monooctanoyl trehalose] showed a Ki of 45 ± 4 µM.
